Laboratory results: PMC6237183 (Nature structural & molecular biology, 2018)
pEC50: −log10 of the molar value. Values joined by “and” are separate entries in the source; they are usually repeats but may differ in a detail not shown here. Equal entries are not always repeated. “Also recorded” adds a separate entry of the source. Where two headings read alike, the source gives them in different places.

What was measured:
5-HT2BR wild-type = 5-HT2BR wild-type (Homo sapiens, UniProt P41595); assay: Gq-mediated calcium flux FLIPR assay; settings: for Gq calcium flux Emax: normalized to percent 5-HT stimulation; for pEC50: agonist mode, N=3
Sequence of 5-HT2BR wild-type (P41595 whole entry): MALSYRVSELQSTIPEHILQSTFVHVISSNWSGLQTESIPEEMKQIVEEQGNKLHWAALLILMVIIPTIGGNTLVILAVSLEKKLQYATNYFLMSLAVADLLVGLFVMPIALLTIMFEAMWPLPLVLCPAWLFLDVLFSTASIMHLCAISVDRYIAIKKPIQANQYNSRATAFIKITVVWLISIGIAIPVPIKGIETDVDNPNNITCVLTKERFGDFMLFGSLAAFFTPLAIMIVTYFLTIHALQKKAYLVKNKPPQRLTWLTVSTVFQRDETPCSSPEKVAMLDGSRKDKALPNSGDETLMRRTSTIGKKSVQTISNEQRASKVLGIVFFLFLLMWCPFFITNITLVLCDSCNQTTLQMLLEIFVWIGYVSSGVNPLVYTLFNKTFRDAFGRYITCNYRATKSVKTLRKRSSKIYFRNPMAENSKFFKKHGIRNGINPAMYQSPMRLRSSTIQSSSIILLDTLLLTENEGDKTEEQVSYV

5-HT2BR L362F^7.35 [1] = biological target: T1, 5-HT2BR L362F^7.35 (Homo sapiens, UniProt P41595, L362F); settings: L362F^7.35 mutant
T1 sequence (P41595 whole entry L362F): as the sequence (P41595 whole entry) above, with L362F counted along it

5-HT2BR L362F^7.35 [2] = biological target: T1, 5-HT2BR L362F^7.35; assay: BRET β-arrestin2 recruitment assay; settings: L362F^7.35 mutant
5-HT2BR L362F^7.35 [3] = biological target: T1, 5-HT2BR L362F^7.35; assay: [3H]-LSD dissociation radioligand binding assay; settings: L362F^7.35 vs WT
5-HT2BR L362A^7.35 = 5-HT2BR L362A^7.35 (Homo sapiens, UniProt P41595, L362A); assay: Gq-mediated calcium flux FLIPR assay; settings: L362A^7.35 mutant, % 5-HT
Sequence of 5-HT2BR L362A^7.35 (P41595 whole entry L362A): as the sequence (P41595 whole entry) above, with L362A counted along it

5-HT2BR [4] = biological target: T2, 5-HT2BR (Homo sapiens, UniProt P41595); assay: Phosphoinositide; format: cell-based
T2 sequence (P41595 whole entry): as the sequence (P41595 whole entry) above

5-HT2BR WT = 5-HT2BR WT (Homo sapiens, UniProt P41595); assay: β-Arrestin2 recruitment Tango assay
Sequence of 5-HT2BR WT (P41595 whole entry): as above

5-HT2BR L362F^7.35 [5] = biological target: T1, 5-HT2BR L362F^7.35; assay: Gq-mediated calcium flux FLIPR assay; settings: L362F^7.35 mutant
5-HT2BR [6] = biological target: T2, 5-HT2BR; assay: BRET β-arrestin2 recruitment assay
5-HT2BR A225S^5.46 [7] = biological target: T3, 5-HT2BR A225S^5.46 (Homo sapiens, UniProt P41595, A225S); assay: Gq-mediated calcium flux FLIPR assay
T3 sequence (P41595 whole entry A225S): as the sequence (P41595 whole entry) above, with A225S counted along it

5-HT2BR A225G^5.46 [8] = biological target: T4, 5-HT2BR A225G^5.46 (Homo sapiens, UniProt P41595, A225G); assay: [3H]-LSD competitive radioligand binding; settings: A225G^5.46 mutant, relative to wild-type
T4 sequence (P41595 whole entry A225G): as the sequence (P41595 whole entry) above, with A225G counted along it

5-HT2BR T140S^3.37 [9] = biological target: T5, 5-HT2BR T140S^3.37 (Homo sapiens, UniProt P41595, T140S); assay: Gq-mediated calcium flux FLIPR assay
T5 sequence (P41595 whole entry T140S): as the sequence (P41595 whole entry) above, with T140S counted along it

5-HT2BR T140S^3.37 [10] = biological target: T5, 5-HT2BR T140S^3.37; assay: [3H]-LSD competitive radioligand binding; settings: T140S^3.37 mutant, relative to wild-type
5-HT2BR A225S^5.46 [11] = biological target: T3, 5-HT2BR A225S^5.46; assay: [3H]-LSD competitive radioligand binding; settings: A225S^5.46 mutant, relative to wild-type
5-HT2BR T140A^3.37 [12] = biological target: T6, 5-HT2BR T140A^3.37 (Homo sapiens, UniProt P41595, T140A); settings: T140A^3.37 mutant, relative to wild-type
T6 sequence (P41595 whole entry T140A): as the sequence (P41595 whole entry) above, with T140A counted along it

5-HT2BR T140A^3.37 [13] = biological target: T6, 5-HT2BR T140A^3.37; assay: [3H]-LSD competitive radioligand binding; settings: T140A^3.37 mutant, relative to wild-type
5-HT2BR A225G^5.46 [14] = biological target: T4, 5-HT2BR A225G^5.46; assay: Gq-mediated calcium flux FLIPR assay; settings: for Emax: read-out: Gq calcium flux Emax
5-HT2BR T140V^3.37 [15] = biological target: T7, 5-HT2BR T140V^3.37 (Homo sapiens, UniProt P41595, T140V); settings: T140V^3.37 mutant, relative to wild-type
T7 sequence (P41595 whole entry T140V): as the sequence (P41595 whole entry) above, with T140V counted along it

5-HT2BR T140V^3.37 [16] = biological target: T7, 5-HT2BR T140V^3.37; assay: [3H]-LSD competitive radioligand binding; settings: T140V^3.37 mutant, relative to wild-type
5-HT2BR T140A^3.37 [17] = biological target: T6, 5-HT2BR T140A^3.37; assay: β-Arrestin2 recruitment Tango assay; settings: T140A^3.37 mutant
[18] = read-out: Gq calcium flux EC50, 5-HT2BR wild-type

For `Cc1ccc2[nH]c3c(c2c1)CCNC3Cc1ccccc1Cl` (centres unmarked) [2-ClBenzyl], the “Gq calcium flux Emax” value (5-HT2BR wild-type; 5-HT2BR wild-type) was 28% and the pEC50 (5-HT2BR wild-type; [18]) was 7.46.
`CN1C[C@H](C(=O)N[C@]2(C)O[C@@]3(O)[C@@H]4CCCN4C(=O)[C@H](Cc4ccccc4)N3C2=O)C=C2c3cccc4[nH]cc(c34)C[C@H]21` [ERG, ergotamine] was tested, and the “Gq calcium flux agonist activity” value (5-HT2BR wild-type; 5-HT2BR wild-type) was “Gq partial agonists”.
In the case of `CCN(CC)C(=O)[C@@H]1C=C2c3cccc4[nH]cc(c34)C[C@H]2N(C)C1` [LSD, lysergic acid diethylamide], the “β-arrestin recruitment agonism” value (5-HT2BR L362F^7.35 [1]) was “abolished”, the “time-dependent recruitment of β-arrestin” value (5-HT2BR L362F^7.35 [2]) was “attenuated” and the “faster dissociation rate compared to 5-HT2BR WT” value (5-HT2BR L362F^7.35 [3]) was “greater than 10 fold”. The “Gq calcium flux Emax” value (5-HT2BR L362A^7.35) was 67%, the “Gq calcium flux agonist activity” value (5-HT2BR wild-type; 5-HT2BR wild-type) was “Gq partial agonists” and the “Gq calcium flux Emax” value (5-HT2BR wild-type; 5-HT2BR wild-type) was 82% and 79%.
With `COc1ccc(CC2NCCc3c2[nH]c2ccc(C)cc32)c(Cl)c1OC` (centres unmarked) [LY266097] the “Gq function via PI hydrolysis” value (5-HT2BR [4]) was “Gq partial agonism”, the “β-arrestin2 recruitment activity” value (5-HT2BR WT; 5-HT2BR WT) was “without detectable β-arrestin2 activity; also recorded: no β-arrestin2 recruitment activity” and the “Gq agonist activity” value (5-HT2BR L362F^7.35 [5]) was “abolished”. For the same compound, the “β-arrestin2 antagonism by BRET” value (5-HT2BR [6]) was “potent β-arrestin2 antagonism”, the “β-arrestin2 recruitment by BRET” value (5-HT2BR [6]; real-time, across specific time points) was “At no tested time point did LY266097 display β-arrestin2 recruitment” and the “Gq calcium flux agonist activity” value (5-HT2BR wild-type; 5-HT2BR wild-type) was “modest Gq partial agonism”. The “Gq calcium flux Emax” value (5-HT2BR wild-type; 5-HT2BR wild-type) was 62% and 54% and the pEC50 (5-HT2BR wild-type; [18]) was 7.43 and 7.39.
In the case of `COc1ccc(CC2NCCc3c2[nH]c2ccccc32)c(Cl)c1OC` (centres unmarked) [des-methyl LY266097 analog], the “Gq calcium flux Emax” value (5-HT2BR wild-type; 5-HT2BR wild-type) was 93% and the pEC50 (5-HT2BR wild-type; [18]) was 7.70.
In the case of `CC[C@@H](CO)NC(=O)[C@@H]1C=C2c3cccc4[nH]cc(c34)C[C@H]2N(C)C1` [methylergonovine], the pEC50 (5-HT2BR A225S^5.46 [7]) was 7.82, the Emax (5-HT2BR A225S^5.46 [7]; read-out: Gq calcium flux Emax) was 58% and the “binding affinity” value (5-HT2BR A225G^5.46 [8]) was “did not substantially affect”. The pEC50 (5-HT2BR T140S^3.37 [9]) was 7.74, the Emax (5-HT2BR T140S^3.37 [9]; read-out: Gq calcium flux Emax) was 64% and the pEC50 (5-HT2BR WT) was 8.92. For the same compound, the “binding affinity” value (5-HT2BR T140S^3.37 [10]) was “spared”, the “binding affinity” value (5-HT2BR A225S^5.46 [11]) was “did not substantially affect” and the “Gq calcium flux agonism” value (5-HT2BR T140A^3.37 [12]) was “significantly diminished”. The “binding affinity” value (5-HT2BR T140A^3.37 [13]) was “significantly diminished”, the pEC50 (5-HT2BR A225G^5.46 [14]; Gq calcium flux EC50, A225G^5.46 mutant) was 7.92 and the Emax (5-HT2BR A225G^5.46 [14]) was 55%. The “Gq calcium flux agonism” value (5-HT2BR T140V^3.37 [15]) was “significantly diminished”, the “binding affinity” value (5-HT2BR T140V^3.37 [16]) was “significantly diminished” and the “β-arrestin2 recruitment” value (5-HT2BR T140A^3.37 [17]) was “failed to recruit β-arrestin2”. The “Gq calcium flux agonist activity” value (5-HT2BR wild-type; 5-HT2BR wild-type) was “Gq partial agonists”, the “Gq calcium flux Emax” value (5-HT2BR wild-type; 5-HT2BR wild-type) was 64% and the pEC50 (5-HT2BR wild-type; Gq calcium flux EC50, 5-HT2BR wild-type) was 7.51 and 7.72 and 7.64 and 7.68.
In the case of `CC[C@@H](CO)NC(=O)[C@@H]1C=C2c3cccc4c3c(cn4C)C[C@H]2N(C)C1` [methysergide], the Emax (5-HT2BR A225G^5.46 [14]) was 54%, the “Gq calcium flux agonism” value (5-HT2BR T140V^3.37 [15]) was “failed to demonstrate any measureable Gq agonist activity” and the “Gq calcium flux agonist activity” value (5-HT2BR wild-type; 5-HT2BR wild-type) was “lack of agonist activity”.
With `Cc1ccc2[nH]c3c(c2c1)CCNC3Cc1ccccc1` (centres unmarked) [unsubstituted Benzyl] the “Gq calcium flux agonist activity” value (5-HT2BR wild-type; 5-HT2BR wild-type) was “no detectible Gq agonist activity”.
